According to patent US8361968B2 (Takeda Pharmaceutical Company Limited, priority 2002, dated 2013):
Numbered stars: 1 amine (or outer) side, 2 acyl side, 3 side chain; on linkers, the order of the positions; unused ones are H or OH. Square brackets hold non-standard residues; d marks the D form. Peptide text beside a SMILES is read from it. X10 = NC(=O)C[C@@H](C(=O)[*:2])N(C[C@@H](N)Cc1ccc(O)cc1)[*:1]; Arg(Me) = CNC(=N)NCCC[C@H](N)C(=O)O; 4Pal = N[C@@H](Cc1ccncc1)C(=O)O; d3Pal = N[C@H](Cc1cccnc1)C(=O)O; d4Pal = N[C@H](Cc1ccncc1)C(=O)O; Cha = N[C@@H](CC1CCCCC1)C(=O)O; azaGly = NNC(=O)O

Target: hOT7T175 (Homo sapiens, UniProt Q969F8, L364H)
Sequence (Q969F8 whole entry L364H): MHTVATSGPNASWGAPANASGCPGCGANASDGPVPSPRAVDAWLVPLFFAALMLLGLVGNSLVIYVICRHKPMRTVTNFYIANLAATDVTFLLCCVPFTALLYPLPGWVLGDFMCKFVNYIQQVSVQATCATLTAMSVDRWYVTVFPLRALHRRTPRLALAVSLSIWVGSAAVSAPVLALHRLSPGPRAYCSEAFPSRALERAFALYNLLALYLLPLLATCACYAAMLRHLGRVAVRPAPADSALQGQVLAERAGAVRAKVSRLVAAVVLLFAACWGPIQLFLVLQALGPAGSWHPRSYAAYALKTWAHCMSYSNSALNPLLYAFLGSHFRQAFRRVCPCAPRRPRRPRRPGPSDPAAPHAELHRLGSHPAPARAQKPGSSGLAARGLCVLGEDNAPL
Assay: Intracellular Ca ion level-increasing activity using FLIPR in hOT7T175/CHO
Assay type: cell-based
Parameters: expressed in transfected cells; host or cells: CHO/dhfr- cells, obtained from ATCC
Details: relative, Metastin (1-54) = 1
Description: Assay for Intracellular Ca Ion Level-Increasing Activity Using Flipr
In accordance with the method described in JPA 2000-312590, the intracellular Ca ion level-increasing activity was measured using FLIPR.
The stable expression cell line hOT7T175 was acquired by transduction of expression plasmid pAK-rOT175 for animal cells into CHO/dhff cells, using CellPhect Transfection Kit (Amersham Pharmacia Biotech, Inc.). First, 240 μL of Buffer A (attached to CellPhect Transfection Kit) was added to 9.6 μg of plasmid DNA dissolved in 240 μl of distilled water, followed by stirring. After settling the mixture for 10 minutes, 480 μL of Buffer B (attached to CellPhect Transfection Kit) was added to the mixture, which was vigorously stirred to form DNA-containing liposomes. Then, 4×10^5 CHO/dhff cells (obtained from ATCC) were inoculated on a 60 mm Petri dish. […] After culturing the cells at 37° C. for 6 hours in 5% carbon dioxide gas, the cells were washed twice with serum-free Ham's F-12 medium and 3 ml of 15% glycerol was added to the cells in the Petri dish to treat for 2 minutes. The cells were again washed twice with serum-free Ham's F-12 medium followed by incubation in Ham's F-12 medium supplemented with 10% fetal bovine serum at 37° C. for 15 hours in 5% carbon dioxide gas. The cells were dispersed by trypsin treatment and recovered from the Petri dish. The recovered cells were inoculated on a 6-well plate in 1.25×10^4 cells/well and incubation was initiated at 37° C. in Dulbecco's modified Eagle medium (DMEM) medium (Nissui Seiyaku Co., Ltd.) containing 10% dialyzed fetal bovine serum (JRH BIOSCIENCES, Inc.) under 5% carbon dioxide gas. […] The medium was exchanged on Days 1 and 2 to remove the cells died.
The intracellular Ca ion level-increasing activity of the synthetic peptide in hOT7T175/CHO was determined using FLIPR (Molecular Devices, Inc.).
hOT7T175/CHO was subcultured in DMEM supplemented with 10% dialyzed fetal bovine serum (hereinafter abbreviated as dFBS) and provided for the experiment (hereinafter abbreviated as 10% dFBS/DMEM). The hOT7T175/CHO was suspended in 10% dFBS-DMEM in 15×10^4 cells/ml. The suspension was inoculated on a 96-well plate for FLIPR (Black Plate Clear Bottom, Coster, Inc.) at 200 μL each (3.0×10^4 cells/200 μL/well), followed by incubation at 37° C. overnight in a 5% CO2 incubator (hereinafter simply referred to as the cell plate). Then, 21 ml of HANKS/HBSS (9.8 g of HANKS, 0.35 g of sodium hydrogencarbonate, 20 ml of 1M HEPES; after adjusting the pH to 7.4 with 1N sodium hydroxide, the mixture was sterilized by filtration), 210 μl of 250 mM Probenecid and […] of fetal bovine serum (FBS) were mixed (HANKS/HBSS-Probenecid-FBS).
Furthermore, 2 vials of Fluo3-AM (50 μug/vial) were dissolved in 21 μL of dimethylsulfoxide and 21 μL of 20% Pluronic acid. The resulting solution was added to and mixed with 10 ml of HANKS/HBSS-Probenecid-FBS described above. After the culture medium was removed, the mixture was dispensed onto the cell plate in 100 μL each/well, followed by incubation at 37° C. for an hour in a 5% CO2 incubator (pigment loading). The peptide was dissolved in dimethylsulfoxide in 1×10^−3 M. The peptide solution was diluted with HANKS/HBSS containing 2.5 mM Probenecid, 0.2% BSA and 0.1% CHAPS.

Specific Activity (intracellular Ca ion level-increasing activity)	SMILES
1	CNC(=N)NCCC[C@H](NC(=O)[C@H](CC(C)C)NC(=O)NNC(=O)[C@H](Cc1ccccc1)NC(=O)[C@H](CO)NC(=O)[C@H](CC(N)=O)NC(=O)[C@H](Cc1c[nH]c2ccccc12)NC(=O)[C@H](CC(N)=O)NC(=O)[C@@H](C)N)C(=O)N[C@@H](Cc1ccccc1)C(N)=O [Compound No. 259, D-Ala-Asn-Trp-Asn-Ser-Phe-AzaGly-Leu-Arg(Me)-Phe-NH2] (H-[dA]NWNSF[azaGly]L[Arg(Me)]F-NH2)
1	CNC(=N)NCCC[C@H](NC(=O)[C@H](CC(C)C)NC(=O)CNC(=O)[C@H](Cc1ccccc1)NC(=O)[C@H](CO)NC(=O)[C@H](C)NC(=O)[C@H](Cc1c[nH]c2ccccc12)NC(=O)[C@H](CC(N)=O)NC(=O)[C@H](N)Cc1ccc(O)cc1)C(=O)N[C@@H](Cc1ccccc1)C(N)=O [Compound No. 210] (H-[dY]NWASFGL[Arg(Me)]F-NH2)
10	CNC(=N)NCCC[C@H](NC(=O)[C@H](CC(C)C)NC(=O)CNC(=O)[C@H](Cc1ccccc1)NC(=O)[C@H](CO)NC(=O)[C@H](CC(N)=O)NC(=O)[C@H](Cc1c[nH]c2ccccc12)NC(=O)[C@H](CCC(N)=O)NC(=O)[C@H](N)Cc1ccc(O)cc1)C(=O)N[C@@H](Cc1ccccc1)C(N)=O [Compound No. 214] (H-[dY]QWNSFGL[Arg(Me)]F-NH2)
5	CC(C)C[C@H](NC(=O)CNC(=O)[C@H](Cc1ccccc1)NC(=O)[C@H](CO)NC(=O)[C@H](CC(N)=O)NC(=O)[C@H](Cc1c[nH]c2ccccc12)NC(=O)[C@H](CC(N)=O)NC(=O)[C@@H](N)Cc1ccc(O)cc1)C(=O)N[C@@H](CCCNC(=N)N)C(=O)N[C@@H](Cc1ccncc1)C(N)=O [Compound No. 17] (H-YNWNSFGLR[4Pal]-NH2)
1	CC(C)C[C@H](NC(=O)CNC(=O)[C@H](Cc1ccccc1)NC(=O)[C@H](CC(C)C)NC(=O)[C@H](CC(N)=O)NC(=O)[C@H](Cc1c[nH]c2ccccc12)NC(=O)[C@H](CC(N)=O)NC(=O)[C@@H](N)Cc1ccc(O)cc1)C(=O)N[C@@H](CCCNC(=N)N)C(=O)N[C@@H](Cc1ccccc1)C(N)=O [Compound No. 24] (H-YNWNLFGLRF-NH2)
1	CNC(=N)NCCC[C@H](NC(=O)[C@H](CC(C)C)NC(=O)CNC(=O)[C@H](Cc1ccccc1)NC(=O)[C@H](CO)NC(=O)[C@@H](NC(=O)[C@H](Cc1c[nH]c2ccccc12)NC(=O)[C@H](CC(N)=O)NC(=O)[C@H](N)Cc1ccc(O)cc1)[C@@H](C)O)C(=O)N[C@@H](Cc1ccccc1)C(N)=O [Compound No. 208] (H-[dY]NWTSFGL[Arg(Me)]F-NH2)
10	CNC(=N)NCCC[C@H](NC(=O)[C@H](CC(C)C)NC(=O)CNC(=O)[C@H](Cc1ccccc1)NC(=O)[C@H](CO)NC(=O)[C@H](CC(N)=O)NC(=O)[C@H](Cc1c[nH]c2ccccc12)NC(=O)[C@@H](CC(N)=O)NC(=O)[C@H](N)Cc1ccc(O)cc1)C(=O)N[C@@H](Cc1ccccc1)C(N)=O [Compound No. 230]
2	CNC(=N)NCCC[C@H](NC(=O)[C@H](CC(C)C)NC(=O)NNC(=O)[C@H](Cc1ccccc1)NC(=O)[C@H](CO)NC(=O)[C@H](CC(N)=O)NC(=O)[C@@H](Cc1ccncc1)NC(=O)[C@H](CC(N)=O)NC(=O)[C@H](N)Cc1ccc(O)cc1)C(=O)N[C@@H](Cc1ccccc1)C(N)=O [Compound No. 302, D-Tyr-Asn-D-Pya(4)-Asn-Ser-Phe-AzaGly-Leu-Arg(Me)-Phe-NH2] (H-[dY]N[d4Pal]NSF[azaGly]L[Arg(Me)]F-NH2)
10	CNC(=N)NCCC[C@H](NC(=O)[C@H](CC(C)C)NC(=O)CNC(=O)[C@H](CC1CCCCC1)NC(=O)[C@H](CO)NC(=O)[C@H](CC(N)=O)NC(=O)[C@H](Cc1c[nH]c2ccccc12)NC(=O)[C@H](CC(N)=O)NC(=O)[C@H](N)Cc1ccc(O)cc1)C(=O)N[C@@H](Cc1ccccc1)C(N)=O [Compound No. 203, D-Tyr-Asn-Trp-Asn-Ser-Cha-Gly-Leu-Arg(Me)-Phe-NH2] (H-[dY]NWNS[Cha]GL[Arg(Me)]F-NH2)
2	CNC(=N)NCCC[C@H](NC(=O)[C@H](CC(C)C)NC(=O)CNC(=O)[C@H](Cc1ccccc1)NC(=O)[C@H](CO)NC(=O)[C@H](CC(N)=O)NC(=O)[C@H](C)NC(=O)[C@H](CC(N)=O)NC(=O)[C@H](N)Cc1ccc(O)cc1)C(=O)N[C@@H](Cc1ccccc1)C(N)=O [Compound No. 169] (H-[dY]NANSFGL[Arg(Me)]F-NH2)
20	CNC(=N)NCCC[C@H](NC(=O)[C@H](CC(C)C)NC(=O)CNC(=O)[C@H](Cc1ccccc1)NC(=O)[C@H](CO)NC(=O)[C@H](CC(N)=O)NC(=O)[C@H](Cc1c[nH]c2ccccc12)NC(=O)[C@H](N)Cc1ccc(O)cc1)C(=O)N[C@@H](Cc1ccccc1)C(N)=O [Compound No. 217] (H-[dY]WNSFGL[Arg(Me)]F-NH2)
2	CNC(=N)NCCC[C@H](NC(=O)[C@H](CC(C)C)NC(=O)NNC(=O)[C@H](Cc1ccccc1)NC(=O)[C@H](CO)NC(=O)[C@H](CC(N)=O)NC(=O)[C@H](Cc1c[nH]c2ccccc12)NC(=O)[C@@H](CO)NC(=O)[C@H](N)Cc1ccc(O)cc1)C(=O)N[C@@H](Cc1ccccc1)C(N)=O [Compound No. 287, D-Tyr-D-Ser-Trp-Asn-Ser-Phe-AzaGly-Leu-Arg(Me)-Phe-NH2] (H-[dY][dS]WNSF[azaGly]L[Arg(Me)]F-NH2)
2	CNC(=N)NCCC[C@H](NC(=O)[C@H](CC(C)C)NC(=O)NNC(=O)[C@H](Cc1ccccc1)NC(=O)[C@H](CO)NC(=O)[C@H](CC(N)=O)NC(=O)[C@@H](Cc1c[nH]c2ccccc12)NC(=O)[C@H](N)Cc1ccc(O)cc1)C(=O)N[C@@H](Cc1ccccc1)C(N)=O [Compound No. 242, D-Tyr-D-Trp-Asn-Ser-Phe-AzaGly-Leu-Arg(Me)-Phe-NH2] (H-[dY][dW]NSF[azaGly]L[Arg(Me)]F-NH2)
5	CNC(=N)NCCC[C@H](NC(=O)[C@H](CC(C)C)NC(=O)NNC(=O)[C@H](Cc1ccccc1)NC(=O)[C@H](CO)NC(=O)[C@H](CC(N)=O)NC(=O)[C@@H](Cc1c[nH]c2ccccc12)NC(=O)[C@H](CC(N)=O)NC[C@@H](N)Cc1ccc(O)cc1)C(=O)N[C@@H](Cc1ccccc1)C(N)=O [Compound No. 300, TyrΨ(CH2NH)Asn-D-Trp-Asn-Ser-Phe-AzaGly-Leu-Arg(Me)-Phe-NH2] (H-[X10][dW]NSF[azaGly]L[Arg(Me)]F-NH2)
1	CNC(=N)NCCC[C@H](NC(=O)[C@H](CC(C)C)NC(=O)NNC(=O)[C@H](Cc1ccccc1)NC(=O)[C@H](CO)NC(=O)[C@H](CC(N)=O)NC(=O)[C@H](CC1CCCCC1)NC(=O)[C@@H](CC(N)=O)NC(=O)[C@H](N)Cc1cccnc1)C(=O)N[C@@H](Cc1ccccc1)C(N)=O [Compound No. 290, D-Pya(3)-D-Asn-Cha-Asn-Ser-Phe-AzaGly-Leu-Arg(Me)-Phe-NH2] (H-[d3Pal][dN][Cha]NSF[azaGly]L[Arg(Me)]F-NH2)
2	CC(C)C[C@H](NC(=O)CNC(=O)[C@H](Cc1ccccc1)NC(=O)[C@H](CO)NC(=O)[C@H](CC(N)=O)NC(=O)[C@H](Cc1c[nH]c2ccccc12)NC(=O)[C@H](CC(N)=O)NC(=O)[C@@H](N)Cc1ccc(O)cc1)C(=O)N[C@@H](CCCNC(=N)N)C(=O)N[C@@H](Cc1ccccc1F)C(N)=O [Compound No. 19]
